Laboratory results: PubChem BioAssay (NCI)
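Exposure lasted 48 hours, with cells grown in 96-well plates and compounds tested at five concentrations. TGI denotes the concentration required for complete inhibition of growth.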

Tests used:
Assay in all cases: DTP human tumour cell line panel, 48 h
SF-295 CNS = tested on: SF-295 CNS
HL-60(TB) leukemia = tested on: HL-60(TB) leukemia
A549 NSCLC = tested on: A549 NSCLC
A498 renal = tested on: A498 renal
K-562 leukemia = tested on: K-562 leukemia
MALME-3M melanoma = tested on: MALME-3M melanoma
U251 CNS = tested on: U251 CNS
TK-10 renal = tested on: TK-10 renal
MDA-N = tested on: MDA-N
NCI-H23 lung = tested on: NCI-H23 lung
HCT-116 colon = tested on: HCT-116 colon
RXF 393 renal = tested on: RXF 393 renal
ACHN renal = tested on: ACHN renal
HOP-62 NSCLC = tested on: HOP-62 NSCLC
HS 578T breast = tested on: HS 578T breast
786-0 renal = tested on: 786-0 renal
OVCAR-3 ovarian = tested on: OVCAR-3 ovarian
DU-145 prostate = tested on: DU-145 prostate
HCT-15 colon = tested on: HCT-15 colon
PC-3 prostate = tested on: PC-3 prostate
SK-MEL-28 melanoma = tested on: SK-MEL-28 melanoma
BT-549 breast = tested on: BT-549 breast
M14 melanoma = tested on: M14 melanoma
HT29 colon = tested on: HT29 colon
SNB-19 CNS = tested on: SNB-19 CNS
MCF7 breast = tested on: MCF7 breast
EKVX NSCLC = tested on: EKVX NSCLC
NCI-H460 lung = tested on: NCI-H460 lung
NCI-H522 lung = tested on: NCI-H522 lung
SW-620 colon = tested on: SW-620 colon
MDA-MB-435 = tested on: MDA-MB-435
KM12 colon = tested on: KM12 colon
IGROV1 ovarian = tested on: IGROV1 ovarian
UACC-257 melanoma = tested on: UACC-257 melanoma
UACC-62 melanoma = tested on: UACC-62 melanoma
NCI-H226 lung = tested on: NCI-H226 lung
SN12C renal = tested on: SN12C renal
OVCAR-4 ovarian = tested on: OVCAR-4 ovarian
MOLT-4 leukemia = tested on: MOLT-4 leukemia
MDA-MB-231 breast = tested on: MDA-MB-231 breast
OVCAR-8 ovarian = tested on: OVCAR-8 ovarian
HOP-92 NSCLC = tested on: HOP-92 NSCLC
SK-MEL-2 melanoma = tested on: SK-MEL-2 melanoma
SR leukemia = tested on: SR leukemia
CCRF-CEM leukemia = tested on: CCRF-CEM leukemia
OVCAR-5 ovarian = tested on: OVCAR-5 ovarian
UO-31 renal = tested on: UO-31 renal
SNB-75 CNS = tested on: SNB-75 CNS
RPMI-8226 leukemia = tested on: RPMI-8226 leukemia
SK-MEL-5 melanoma = tested on: SK-MEL-5 melanoma
NCI/ADR-RES ovarian = tested on: NCI/ADR-RES ovarian
HCC-2998 colon = tested on: HCC-2998 colon
SF-539 CNS = tested on: SF-539 CNS
SK-OV-3 ovarian = tested on: SK-OV-3 ovarian
COLO 205 colon = tested on: COLO 205 colon
CAKI-1 renal = tested on: CAKI-1 renal
LOX IMVI melanoma = tested on: LOX IMVI melanoma

COc1ccc(O)c(C=NCCCN=Cc2cc(OC)ccc2O)c1
TGI (SF-295 CNS): 51.1 µM | TGI (HL-60(TB) leukemia): 28.5 µM | TGI (A549 NSCLC): > 100 µM | TGI (A498 renal): > 100 µM | TGI (K-562 leukemia): > 100 µM | TGI (MALME-3M melanoma): 62.7 µM | TGI (U251 CNS): 56.9 µM | TGI (TK-10 renal): > 100 µM | TGI (MDA-N): > 100 µM | TGI (NCI-H23 lung): > 100 µM | TGI (HCT-116 colon): > 100 µM | TGI (RXF 393 renal): 95.2 µM | TGI (ACHN renal): 74.4 µM | TGI (HOP-62 NSCLC): > 100 µM | TGI (HS 578T breast): 68 µM | TGI (786-0 renal): > 100 µM | TGI (OVCAR-3 ovarian): 37.3 µM | TGI (DU-145 prostate): 80.5 µM | TGI (HCT-15 colon): 93.1 µM | TGI (PC-3 prostate): > 100 µM | TGI (SK-MEL-28 melanoma): > 100 µM | TGI (BT-549 breast): > 100 µM | TGI (M14 melanoma): > 100 µM | TGI (HT29 colon): > 100 µM | TGI (SNB-19 CNS): > 100 µM | TGI (MCF7 breast): 56.9 µM | TGI (EKVX NSCLC): 83 µM | TGI (NCI-H460 lung): > 100 µM | TGI (NCI-H522 lung): > 100 µM | TGI (SW-620 colon): > 100 µM | TGI (MDA-MB-435): 86.4 µM | TGI (KM12 colon): 64.6 µM | TGI (IGROV1 ovarian): > 100 µM | TGI (UACC-257 melanoma): 69.5 µM | TGI (UACC-62 melanoma): 84.5 µM | TGI (NCI-H226 lung): 73.2 µM | TGI (SN12C renal): 83.5 µM | TGI (OVCAR-4 ovarian): > 100 µM | TGI (MOLT-4 leukemia): > 100 µM | TGI (MDA-MB-231 breast): > 100 µM | TGI (OVCAR-8 ovarian): 69.9 µM | TGI (HOP-92 NSCLC): 65 µM | TGI (SK-MEL-2 melanoma): > 100 µM | TGI (SR leukemia): > 100 µM | TGI (CCRF-CEM leukemia): 83.5 µM | TGI (OVCAR-5 ovarian): > 100 µM | TGI (UO-31 renal): > 100 µM | TGI (SNB-75 CNS): 64.7 µM | TGI (RPMI-8226 leukemia): 74.7 µM

C=C1c2nc3ccccc3n2C=C(c2ccccc2)N1c1ccccc1
TGI (SF-295 CNS): > 100 µM | TGI (HL-60(TB) leukemia): > 100 µM | TGI (SK-MEL-5 melanoma): 83.3 µM | TGI (A549 NSCLC): > 100 µM | TGI (A498 renal): > 100 µM | TGI (K-562 leukemia): > 100 µM | TGI (MALME-3M melanoma): > 100 µM | TGI (U251 CNS): > 100 µM | TGI (NCI/ADR-RES ovarian): > 100 µM | TGI (TK-10 renal): > 100 µM | TGI (MDA-N): > 100 µM | TGI (NCI-H23 lung): > 100 µM | TGI (HCC-2998 colon): 28.8 µM | TGI (HCT-116 colon): > 100 µM | TGI (RXF 393 renal): > 100 µM | TGI (ACHN renal): > 100 µM | TGI (786-0 renal): > 100 µM | TGI (OVCAR-3 ovarian): > 100 µM | TGI (DU-145 prostate): > 100 µM | TGI (HCT-15 colon): 51.9 µM | TGI (PC-3 prostate): > 100 µM | TGI (BT-549 breast): 98.5 µM | TGI (M14 melanoma): > 100 µM | TGI (SNB-19 CNS): > 100 µM | TGI (MCF7 breast): > 100 µM | TGI (EKVX NSCLC): > 100 µM | TGI (NCI-H460 lung): 79.6 µM | TGI (NCI-H522 lung): > 100 µM | TGI (SF-539 CNS): > 100 µM | TGI (SW-620 colon): > 100 µM | TGI (MDA-MB-435): > 100 µM | TGI (KM12 colon): 59.8 µM | TGI (SK-OV-3 ovarian): > 100 µM | TGI (IGROV1 ovarian): > 100 µM | TGI (UACC-257 melanoma): > 100 µM | TGI (UACC-62 melanoma): > 100 µM | TGI (COLO 205 colon): > 100 µM | TGI (NCI-H226 lung): > 100 µM | TGI (SN12C renal): > 100 µM | TGI (OVCAR-4 ovarian): > 100 µM | TGI (MOLT-4 leukemia): > 100 µM | TGI (CAKI-1 renal): > 100 µM | TGI (MDA-MB-231 breast): > 100 µM | TGI (OVCAR-8 ovarian): > 100 µM | TGI (HOP-92 NSCLC): > 100 µM | TGI (SK-MEL-2 melanoma): > 100 µM | TGI (SR leukemia): > 100 µM | TGI (CCRF-CEM leukemia): > 100 µM | TGI (OVCAR-5 ovarian): > 100 µM | TGI (LOX IMVI melanoma): > 100 µM | TGI (UO-31 renal): > 100 µM | TGI (SNB-75 CNS): > 100 µM | TGI (RPMI-8226 leukemia): > 100 µM
